This is an account of results in patent US11467159B2, “Luminescent phospholipid analogs for the identification and isolation of circulating tumor cells” (CELLECTAR BIOSCIENCES, INC., priority 2016, dated 2022).

SMILES strings stand for the structures.

Experiment [1] deals with xenograft and spontaneous tumor models. As to conditions: over 55 xenograft and spontaneous tumor models; cited from earlier work.
The test system of a further experiment is circulating tumor cells. As to the kind of experiment: Flow cytometry identification and enumeration of circulating tumor cells in mononuclear cells from cancer patients' whole blood stained with CLR1501. It counts as cell-based, human. As to conditions: for CK−/EpCAM−/CLR1501+ cells (number): CD45−, CD14−, CD34−, nucleated. From the text: (§1) Whole blood was collected in either Cell Save® collection tubes or ethylenediaminetetraacetic acid (“EDTA”) collection tubes from seven cancer patients with lung (patients 101 and 103), thyroid (patient 102), breast (patient 106), cervical (patient 104), squamous cell carcinoma (107), and colorectal (patient 108) cancer prior to (draw 1) and after (draw 2) therapy, when available. Mononuclear cells were isolated from the whole blood using a Ficoll-Paque density gradient. Cells from each patient were then incubated with an Fc blocker. The cells were then stained with fluorescently-tagged antibodies to CD45, CD14, CD34, EpCAM, and pan-Cytokeratin (CK), and a fluorescent PLE analog (“CLR1501”) for 30 minutes. Cells were then analyzed by flow cytometry to indicate the number of cells from each whole blood sample that were positive and/or negative for a particular marker. According to the current definition, CTCs were identified as live cells that were CD45−, CD14−, CD34−, CK+, and EpCAM+ (“by definition”). Due to prior experience with CD14+ monocytes/macrophages (FIG. 1), CD14+ cells were removed from the analyses due to high uptake of CLR1501. CD34+ normal […] cells were also removed from the analyses.
The first row of Tables 1 and 2 depicts the number of cells from each patient's blood draw that fulfilled the definition of a CTC: CD45−, CD14−, CD34−, CK+, and EpCAM+, and contained a nucleus. The second row depicts the number of cells from each patient's blood draw that were CD45−, CD14−, CD34−, CK+, and contained a nucleus. The third row depicts the number of cells from each patient's blood draw that were CLR 1501+, CD45−, CD14−, CD34−, CK+, and contained a nucleus. The fourth row depicts the number of cells from each patient's blood draw that were CD45−, CD14−, CD34−, and EpCAM+ and contained a nucleus. The fifth row depicts the number of cells from each patient's blood draw that were CLR 1501+, CD45−, CD14−, CD34−, and EpCAM+ and contained a nucleus. The sixth row depicts the number of cells from each patient's blood draw that were CLR 1501+, CD45−, CD14−, CD34−, CK−, and EpCAM−, and contained a nucleus.
In general terms: Flow cytometry measures light scatter and fluorescence of single cells or particles in a stream.

Experiment [2] deals with CD14+ monocytes/macrophages. As to the kind of experiment: Flow cytometry uptake of CLR1501 in CD14+ cells of patient blood (FIG. 1). It counts as cell-based, human. The text has this:
FIG. 1. […] Upper left quadrant indicates CD14−/CLR1501+ cells, upper right indicates CD14+/CLR1501+, bottom right indicates CD14+/CLR1501−, and bottom left indicates CD14−/CLR1501.
Whole blood was collected in either Cell Save® collection tubes or ethylenediaminetetraacetic acid (“EDTA”) collection tubes from seven cancer patients with lung (patients 101 and 103), thyroid (patient 102), breast (patient 106), cervical (patient 104), squamous cell carcinoma (107), and colorectal (patient 108) cancer prior to (draw 1) and after (draw 2) therapy, when available. Mononuclear cells were isolated from the whole blood using a Ficoll-Paque density gradient. Cells from each patient were then incubated with an Fc blocker. The cells were then stained with fluorescently-tagged antibodies to CD45, CD14, CD34, EpCAM, and pan-Cytokeratin (CK), and a fluorescent PLE analog (“CLR1501”) for 30 minutes. Cells were then analyzed by flow cytometry to indicate the number of cells from each whole blood sample that were positive and/or negative for a particular marker. According to the current definition, CTCs were identified as live cells that were CD45−, CD14−, CD34−, CK+, and EpCAM+ (“by definition”). Due to prior experience with CD14+ monocytes/macrophages (FIG. 1), CD14+ cells were removed from the analyses due to high uptake of CLR1501. CD34+ normal […] cells were also removed from the analyses. […]

For the next experiment, the system named is CD45+ and CD34+ cells. As to the kind of experiment: Flow cytometry uptake of CLR1501 in remaining CD45+ and CD34+ cells of patient blood. It counts as cell-based, human. As to conditions: same patient, in comparison with CD14+ cells.
Text: as §1

With `C[N+](C)(C)CCOP(=O)([O-])OCCCCCCCCCCCCCCCCCCc1ccc(I)cc1` [CLR1404], in experiment [1], the “uptake and retention in tumors” value was “selective uptake and prolonged retention in tumors”.

Turning to `C[N+](C)(C)CCOP(=O)([O-])OCCCCCCCCCCCCCCCCCCc1ccc(C2=C3C=CC=[N+]3[B-](F)(F)n3cccc32)cc1` [CLR1501], the “CK−/EpCAM−/CLR1501+ cells (number)” value with circulating tumor cells (Cell Save tube, patient 101 draw 1, lung cancer) was 1.4 M; with circulating tumor cells (Cell Save tube, patient 101 draw 2, lung cancer), 121,696 cells; with circulating tumor cells (Cell Save tube, patient 102 draw 1, thyroid cancer), 6.7 M; with circulating tumor cells (Cell Save tube, patient 102 draw 2, thyroid cancer), 7.9 M; with circulating tumor cells (Cell Save tube, patient 103, lung cancer), 5.3 M; in the experiment with circulating tumor cells (Cell Save tube, patient 104 draw 1, cervical cancer), 1.3 M. Further, the “CK−/EpCAM−/CLR1501+ cells (number)” value in the experiment with circulating tumor cells (Cell Save tube, patient 106, breast cancer) is 278 cells; in the experiment on circulating tumor cells (Cell Save tube, patient 107, carcinoma), 611,622 cells; in the experiment on circulating tumor cells (Cell Save tube, patient 108 draw 1, colorectal cancer) it was 1,062 cells; in the experiment on circulating tumor cells (Cell Save tube, patient 108 draw 2, colorectal cancer), 1.1 M; in the experiment on circulating tumor cells (EDTA tube, patient 101 draw 1, lung cancer), 1.8 M; in the experiment on circulating tumor cells (EDTA tube, patient 101 draw 2, lung cancer), 30,222 cells. Moreover, the “CK−/EpCAM−/CLR1501+ cells (number)” value in the experiment on circulating tumor cells (EDTA tube, patient 102 draw 1, thyroid cancer) was 1.5 M; in the experiment with circulating tumor cells (EDTA tube, patient 102 draw 2, thyroid cancer), 10.9 M; in the experiment on circulating tumor cells (EDTA tube, patient 103, lung cancer), 2.5 M; with circulating tumor cells (EDTA tube, patient 104, cervical cancer) it was 4.0 M; with circulating tumor cells (EDTA tube, patient 106, breast cancer) it was 19,585 cells; in the experiment with circulating tumor cells (EDTA tube, patient 107, carcinoma), 147,641 cells. Also, the “CK−/EpCAM−/CLR1501+ cells (number)” value was 29,584 cells in the experiment on circulating tumor cells (EDTA tube, patient 108 draw 1, colorectal cancer) and 753,387 cells in the experiment on circulating tumor cells (EDTA tube, patient 108 draw 2, colorectal cancer). In addition, the “CK+ cells identified by CLR 1501” value in the experiment with circulating tumor cells (all cancer types, either blood collection tube, listed as 2 vs row 3 of Table 1 or 2) is recorded as 99-100%. Moreover, the “EpCAM+ cells identified by CLR 1501” value in the experiment on circulating tumor cells (all cancer types, either blood collection tube, listed as 4 vs row 5 of Table 1 or 2) is given as 35-100%. The “uptake of CLR1501 by CTCs (by definition)” value in the experiment on circulating tumor cells (all seven patient samples) was “positive uptake”. Further, in experiment [2] (CD14+ monocytes/macrophages, FIG. 1), the “uptake of CLR1501 in CD14+ cells” value is “high uptake”. In addition, in experiment [2] (CD45−, CD34− cells from patient 108 (colorectal cancer), FIG. 1 panel B), the “cells positive for CD14+ that are also positive for CLR1501” value is 99.7%. Besides, the “uptake of CLR1501 by remaining CD45+ and CD34+ cells” value in the experiment with CD45+ and CD34+ cells is listed as “not take up CLR1501 to a large extent”.
